Literature values in publication PMC3922827 (Journal of the American Chemical Society, 2013).
Read-outs that look alike come from different tables or passages of the source. No end group written: not given here. *: point of attachment. For = O=C*

Conditions: graded or all-or-none class

Row | Substance | type of dye release from lipid vesicles | type of dye release from lipid vesicles (LUVs)
1 | AGWLLGKINLKALAALAKKIL-NH2 [TP10W] | graded | –
2 | For-MAQKIISTIGKLVKWIIKTVNKFTKK [DL-1] | – | all-or-none
